The values below come from paper PMC8048981, “Cys–Cys and Cys–Lys Stapling of Unprotected Peptides Enabled by Hypervalent Iodine Reagents” (Angewandte Chemie (International Ed. in English), 2021).

Read-outs that look alike come from different tables or passages of the source.

Data set [1] can be described thus: Two-component Cys-Lys stapling: Cys S-alkynylation by EBX-pentafluorophenyl ester reagents 9a-9d (1.1 equiv), then intramolecular Lys aminolysis of the PFP ester; DIPEA (2.5 equiv). Particulars: the molecule shown is the open-chain precursor, DMF, 1.0 mM, 37.0 °C, scale: % relative absorbance at 210 nm vs linear peptide standard.
Data set [2] is described as follows: Two-component Cys-Cys stapling with bis-hypervalent iodine reagents 8c-8e (3.0 equiv), DIPEA (2.5 equiv), overnight, preparative RP-HPLC. Particulars: the molecule shown is the open-chain precursor, DMF, 2.0 mM, 37.0 °C.
The conditions of data set [3]: the molecule shown is the open-chain precursor, scale: % relative absorbance at 210 nm vs linear peptide standard.
Data set [4] can be described thus: Two-component Cys-Lys stapling with EBX-PFP ester reagents 9a/9b (1.1 equiv), DIPEA (2.5 equiv), preparative RP-HPLC. Particulars: the molecule shown is the open-chain precursor, DMF, 1.0 mM, 37.0 °C.
The mark [5] stands for this setting: 33-membered ring, DMF, 1.0 mM, 37.0 °C, 4.0 h.
Where [6] appears, read: 24-membered ring, DMF, 1.0 mM, 37.0 °C, 4.0 h.
[7] abbreviates: 22-membered ring, DMF, 1.0 mM, 37.0 °C, 4.0 h.

With `CSCC[C@H](NC(=O)[C@H](CC(N)=O)NC(=O)[C@H](Cc1ccc(O)cc1)NC(=O)[C@H](CCCCN)NC(=O)[C@H](CCC(=O)O)NC(=O)[C@H](Cc1c[nH]cn1)NC(=O)[C@H](Cc1c[nH]c2ccccc12)NC(=O)[C@H](CSC#Cc1cccc(C(=O)Oc2c(F)c(F)c(F)c(F)c2F)c1)NC(=O)[C@H](CCCNC(=N)N)NC(=O)[C@H](CCC(=O)O)NC(=O)[C@@H](N)CO)C(N)=O` [H-SERC(S-C≡C-C6H4-3-CO-OPfp)WHEKYNM-NH2], the ring closure, conversion by HPLC in data set [1] (26-membered ring, 0.5 h) came to 20. In the case of “Ac-QSQQTFC(S-C≡C-Si(iPr)2-O-Si(iPr)2-C≡C-I[bis-CF3 benziodoxole])NLWRLLCQN-NH2”, in data set [2] (33-membered ring), the ring closure, isolated yield (% isolated yield) was found to be 17. The compound also had a ring closure, conversion by HPLC in data set [3] (setting [5]) of 30. On to “Ac-ENPEC(S-C≡C-C6H4-4-C≡C-I[bis-CF3 benziodoxole])ILDCHVQRVM-NH2”, for which the ring closure, conversion by HPLC in data set [3] (25-membered ring) stood at 27. For the compound “Ac-YGGEAAREAC(S-C≡C-Si(iPr)2-O-Si(iPr)2-C≡C-I[bis-CF3 benziodoxole])ARECAARE-NH2”, the ring closure, isolated yield (% isolated yield) in data set [2] (24-membered ring) is 19. The same compound registered a ring closure, conversion by HPLC in data set [3] (24-membered ring) of 9.

In the case of “Ac-YGGEAARK(ivDde)AC(S-C≡C-C6H4-4-CO-OPfp)AREKAARE-NH2”, in data set [1] (27-membered ring, 0.5 h), the ring closure, conversion by HPLC is 117. “Ac-QSQQTFC(S-C≡C-C6H4-4-C≡C-I[bis-CF3 benziodoxole])NLWRLLCQN-NH2” returned a ring closure, conversion by HPLC in data set [3] (34-membered ring, DMF, 1.0 mM, 37.0 °C, 4.0 h) of 46.

Regarding `C[C@H](NC(=O)[C@H](CC(=O)O)NC(=O)[C@H](Cc1c[nH]cn1)NC(=O)[C@H](CCCCN)NC(=O)[C@H](Cc1ccc(O)cc1)NC(=O)[C@H](Cc1ccccc1)NC(=O)[C@H](CCC(N)=O)NC(=O)[C@H](CO)NC(=O)[C@@H](N)CCCNC(=N)N)C(=O)NCC(=O)N[C@@H](CSC#Cc1ccc(C(=O)Oc2c(F)c(F)c(F)c(F)c2F)cc1)C(=O)NCC(N)=O` [H-RSQFYKHDAGC(S-C≡C-C6H4-4-CO-OPfp)G-NH2], the ring closure, conversion by HPLC came out at 54 in data set [1] (30-membered ring, 0.5 h) and 18 in data set [1] (41-membered ring, 0.5 h).

In the case of “Ac-QSQQTFC(S-C≡C-C6H4-3-CO-OPfp)NLWRLLKQN-NH2”, the ring closure, isolated yield (% isolated yield) in data set [4] (35-membered ring) amounted to 55. In data set [1] (35-membered ring, 0.5 h), the ring closure, conversion by HPLC was found to be 110. Regarding “Ac-YGGEAAREAC(S-C≡C-Si(cHex)2-C≡C-I[bis-CF3 benziodoxole])ARECAARE-NH2”, the ring closure, conversion by HPLC in data set [3] (22-membered ring) was determined as 69. Take “Ac-YGGEKAREAC(S-C≡C-C6H4-4-CO-OPfp)AREKAARE-NH2”: the ring closure, conversion by HPLC in data set [1] (27-membered ring, 0.5 h) came out at 91. For `CSCC[C@H](NC(=O)[C@H](CC(N)=O)NC(=O)[C@H](Cc1ccc(O)cc1)NC(=O)[C@H](CCCCN)NC(=O)[C@H](CCC(=O)O)NC(=O)[C@H](Cc1c[nH]cn1)NC(=O)[C@H](Cc1c[nH]c2ccccc12)NC(=O)[C@H](CSC#Cc1ccc(C(=O)Oc2c(F)c(F)c(F)c(F)c2F)cc1)NC(=O)[C@H](CCCNC(=N)N)NC(=O)[C@H](CCC(=O)O)NC(=O)[C@@H](N)CO)C(N)=O` [H-SERC(S-C≡C-C6H4-4-CO-OPfp)WHEKYNM-NH2], the ring closure, conversion by HPLC in data set [1] (27-membered ring, 0.5 h) was determined as 63. On to `C[C@H](NC(=O)[C@H](CC(=O)O)NC(=O)[C@H](Cc1c[nH]cn1)NC(=O)[C@H](CCCCN)NC(=O)[C@H](Cc1ccc(O)cc1)NC(=O)[C@H](Cc1ccccc1)NC(=O)[C@H](CCC(N)=O)NC(=O)[C@H](CO)NC(=O)[C@@H](N)CCCNC(=N)N)C(=O)NCC(=O)N[C@@H](CSC#Cc1cccc(C(=O)Oc2c(F)c(F)c(F)c(F)c2F)c1)C(=O)NCC(N)=O` [H-RSQFYKHDAGC(S-C≡C-C6H4-3-CO-OPfp)G-NH2], for which the ring closure, conversion by HPLC in data set [1] (29-membered ring, 0.5 h) was 22. For the compound “Ac-YGGEAARKAC(S-C≡C-C6H4-4-CO-OPfp)AREKAARE-NH2”, in data set [1] (27-membered ring, 0.5 h), the ring closure, conversion by HPLC was found to be 92. Regarding “5(6)-FAM-QSQQTFC(S-C≡C-C6H4-4-CO-OPfp)NLWRLLKQN-NH2”, in data set [4] (36-membered ring), the ring closure, isolated yield (% isolated yield) came out at 76.

“Ac-ENPEC(S-C≡C-Si(iPr)2-O-Si(iPr)2-C≡C-I[bis-CF3 benziodoxole])ILDCHVQRVM-NH2”: the ring closure, isolated yield (% isolated yield) in data set [2] (24-membered ring) amounted to 29. For the same compound, in data set [3] (setting [6]), the ring closure, conversion by HPLC was 51. Consider “Ac-YGGEAAREAC(S-C≡C-C6H4-4-CO-OPfp)AREKAAREK-NH2”, for which the ring closure, conversion by HPLC in data set [1] (27-membered ring, 0.5 h) amounted to 95. “Ac-ENPEC(S-C≡C-Si(cHex)2-C≡C-I[bis-CF3 benziodoxole])ILDCHVQRVM-NH2”: in data set [3] (setting [7]), the ring closure, conversion by HPLC is 89. Consider “Ac-QSQQTFC(S-C≡C-C6H4-2-CO-OPfp)NLWRLLKQN-NH2”, for which, in data set [1] (34-membered ring, 0.5 h), the ring closure, conversion by HPLC was 123. “Ac-ENPEC(S-C≡C-C6H4-3-C≡C-I[bis-CF3 benziodoxole])ILDCHVQRVM-NH2” registered a ring closure, conversion by HPLC in data set [3] (setting [6]) of 13. Regarding “Ac-ENPEC(S-C≡C-C6H4-4-CO-OPfp)ILDKHVQRVM-NH2”, the ring closure, isolated yield (% isolated yield) in data set [4] (27-membered ring) is 52. Also, in data set [1] (27-membered ring, 0.5 h), the ring closure, conversion by HPLC came to 62.

Take “Ac-YGGEAAREAC(S-C≡C-C6H4-3-CO-OPfp)AREKAARE-NH2”: the ring closure, isolated yield (% isolated yield) in data set [4] (26-membered ring) was 44. Moreover, in data set [1] (26-membered ring, 0.5 h), the ring closure, conversion by HPLC came out at 77. Take “Ac-YGGEAARK(ivDde)AC(S-C≡C-C6H4-3-CO-OPfp)AREKAARE-NH2”: the ring closure, conversion by HPLC in data set [1] (26-membered ring, 0.5 h) amounted to 72. “Ac-QSQQTFC(S-C≡C-C6H4-4-CO-OPfp)NLWRLLKQN-NH2”: the ring closure, isolated yield (% isolated yield) in data set [4] (36-membered ring) turned out to be 87. For the same compound, in data set [1] (36-membered ring, 0.5 h), the ring closure, conversion by HPLC was 117. In turn, `CSCC[C@H](NC(=O)[C@H](CC(N)=O)NC(=O)[C@H](CCCCN)NC(=O)[C@H](Cc1ccc(O)cc1)NC(=O)[C@H](CS)NC(=O)[C@H](CCC(=O)O)NC(=O)[C@H](Cc1c[nH]cn1)NC(=O)[C@H](Cc1c[nH]c2ccccc12)NC(=O)[C@H](CSC#C[Si](O[Si](C#CI1OC(C(F)(F)F)(C(F)(F)F)c2ccccc21)(C(C)C)C(C)C)(C(C)C)C(C)C)NC(=O)[C@H](CCCNC(=N)N)NC(=O)[C@H](CCC(=O)O)NC(=O)[C@@H](N)CO)C(N)=O` showed a ring closure, conversion by HPLC in data set [3] (setting [6]) of 15. On to “Ac-QSQQTFC(S-C≡C-C6H4-3-C≡C-I[bis-CF3 benziodoxole])NLWRLLCQN-NH2”, for which the ring closure, conversion by HPLC in data set [3] (setting [5]) is 13.

As to “Ac-YGGEAAREAC(S-C≡C-C6H3-3,5-(CO-OPfp)2)AREKAARE-NH2”, in data set [1] (26-membered ring, 0.25 h), the ring closure, conversion by HPLC was 70. Regarding “Ac-YGGEAARKAC(S-C≡C-C6H4-3-CO-OPfp)AREKAARE-NH2”, the ring closure, conversion by HPLC in data set [1] (26-membered ring, 0.5 h) is 74. In the case of “Ac-ENPEC(S-C≡C-C6H4-3-CO-OPfp)ILDKHVQRVM-NH2”, in data set [4] (26-membered ring), the ring closure, isolated yield (% isolated yield) turned out to be 7. In addition, the ring closure, conversion by HPLC in data set [1] (26-membered ring, 0.5 h) stood at 34.

As to “Ac-QSQQTFC(S-C≡C-Si(cHex)2-C≡C-I[bis-CF3 benziodoxole])NLWRLLCQN-NH2”, the ring closure, isolated yield (% isolated yield) in data set [2] (31-membered ring) worked out at 22. Regarding `CSCC[C@H](NC(=O)[C@H](CC(N)=O)NC(=O)[C@H](CCCCN)NC(=O)[C@H](Cc1ccc(O)cc1)NC(=O)[C@H](CS)NC(=O)[C@H](CCC(=O)O)NC(=O)[C@H](Cc1c[nH]cn1)NC(=O)[C@H](Cc1c[nH]c2ccccc12)NC(=O)[C@H](CSC#C[Si](C#CI1OC(C(F)(F)F)(C(F)(F)F)c2ccccc21)(C(C)C)C(C)C)NC(=O)[C@H](CCCNC(=N)N)NC(=O)[C@H](CCC(=O)O)NC(=O)[C@@H](N)CO)C(N)=O`, the ring closure, conversion by HPLC in data set [3] (setting [7]) was determined as 79. In the case of “Ac-YGGEAAREAC(S-C≡C-C6H4-4-CO-OPfp)AREKAARE-NH2”, in data set [4] (27-membered ring), the ring closure, isolated yield (% isolated yield) came out at 65. The ring closure, conversion by HPLC in data set [1] (27-membered ring, 0.5 h) was 114. As to “Ac-ENPEC(S-C≡C-C6H4-2-CO-OPfp)ILDKHVQRVM-NH2”, the ring closure, conversion by HPLC in data set [1] (25-membered ring, 0.5 h) came to 101. On to “Ac-YGGEAAREAC(S-C≡C-C6H4-2-CO-OPfp)AREKAARE-NH2”, for which, in data set [1] (25-membered ring, 0.5 h), the ring closure, conversion by HPLC worked out at 118.
